Experimental data reported in patent publication US8633161B2, “Therapeutic agents for the treatment of leukemia” (The Ohio State University Research Foundation, priority 2005, dated 2014).

Tests used:
Akt = assay: Western blot of phosphorylated and total Akt; format: cell-based; settings: FTY720-treated 32D-BCR/ABL cells
[1] = tested on: primary CML-BC, p210-BCR/ABL and p190-BCR/ABL expressing cell lines; assay: FTY720 in vitro: proliferation, clonogenic potential and apoptosis of BCR/ABL-expressing cells; format: cell-based; settings: 2.5 μM FTY720, imatinib-sensitive and -resistant p210 and p190 cell lines
From the text: We studied the in vitro effect of FTY720 and derivative compounds on proliferation rate, clonogenic potential, and apoptosis in imatinib-sensitive and -resistant p210-BCR/ABL-expressing cells and p190-BCR/ABL-expressing cells. We then investigated the in vivo antileukemic potential of FTY720 in a mouse-model of imatinib-resistant CML-BC,
(§1) We obtained FTY720 synthesized using previously published methods (see Budde, K., et al., First human trial of FTY720, a novel immunomodulator, in stable renal transplant patients. J Am Soc Nephrol, (2002) 13:1073-83). Cells in liquid culture and in methylcellulose colony assays were cultured in the presence of 2.5 μM FTY720. SCID mice were i.v. injected with 5×10^5 T315I BCR/ABL-transduced 32Dc13 cells and levels of BCR/ABL in the peripheral blood were assessed by nested reverse transcriptase PCR. Upon establishment of a leukemia-like disease, mice were i.p. injected daily with FTY720 (250 μg/mouse/day). The disease process was monitored weekly by nested reverse transcriptase PCR. Apoptosis was assessed by AnnexinV/PI staining on untreated vs. treated cells.

[2] = tested on: untransduced 32Dc13 cells and primary normal bone marrow cells; assay: FTY720 on cells not expressing the oncogene; format: cell-based; settings: untransduced 32Dc13 cells and primary normal bone marrow cells from healthy donors; FTY720 2.5 μM
Experimental: as §1

[3] = tested on: T315I BCR/ABL-transduced 32Dc13 cells; format: in vivo
Experimental: as §1

BCR/ABL = assay: Western blot of BCR/ABL activity (phosphotyrosine) and expression; format: cell-based; settings: upon treatment with FTY720 2.5 μM
Experimental: Cells (10^7) were lysed in 100 μl of RIPA buffer (150 mM NaCl, 1% NP-40, 0.1% SDS, 50 mM Tris [pH 8.0]) supplemented with 1 mM PMSF, 25 μg/ml aprotinin, 10 μg/ml leupeptin, 100 μg/ml pepstatin A, 5 mM benzamidine, 1 mM Na3VO4, 50 mM NaF, 10 mM β-glycerol-phosphate. After incubation on ice (30 min), lysates were clarified (12,000×g, 15 min, 4° C.), denatured, and subjected to SDS-PAGE and Western blot (Iervolino et al., 2002). The antibodies used were goat polyclonal anti-SET(I2PP2A), -pp32(I1PP2A), and -hnRNP A1 and rabbit polyclonal anti-SHP-1 (Santa Cruz Biotechnology); monoclonal anti-Abl (Ab-3), -c-myc (Ab-2), -phosphotyrosine PY20 (Ab-4), and -pBAD^S112 (Ab-1) (EMD); monoclonal anti-hnRNP A1 (9H10) (G. Dreyfuss, University of Pennsylvania, Philadelphia, Pa.); monoclonal anti-GRB2 and -Rb (BD TransLab Inc.); monoclonal anti-HA (Covance); monoclonal anti-PP2Ac, clone 1D6 (Upstate Inc.); monoclonal anti-FLAG, clone M2 (Sigma); monoclonal anti-pERK^T202/Y204 and rabbit polyclonal anti-pAKT^T308, pSTAT5^Y694, -pJak2^Y1007/1008, -Jak2, -BAD, -Akt, and -ERK1/2 (Cell Signaling Technology Inc.); monoclonal anti-STATS (Invitrogen); rabbit monoclonal anti-pPP2A^Y307 (Epitomics); rabbit polyclonal anti-PR65/A (Calbiochem). IPs were carried out in 20 mM HEPES (pH 7.0), 150 mM NaCl, and 0.2% NP-40 supplemented with protease and phosphatase inhibitors. Lysates were precleared and immunoprecipitated with Ab-coated beads for 3 hr at 4° C. After washings, IPs were subjected to SDS-PAGE and Western blot.

PP2A = target: T1, PP2A (Mus musculus, UniProt P63330); assay: PP2A IP phosphatase assay on lysates of treated cells; format: cell-based; settings: FTY720 2.5 μM, BCR/ABL-transformed cell lines
T1 construct: endogenous in cells; host or cells: 32Dc13, 32D-BCR/ABL, 32D-BCR/ABL-T315I, 32D-p210 Y253H, BaF3-p210 T315I, K562, primary CML-BC CD34+ and NBM CD34+ cells
Experimental: PP2A phosphatase assays were carried out using the PP2A IP phosphatase assay kit (Upstate). Briefly, protein lysates (50 μg) in 100 μl of 20 mM HEPES (pH 7.0)/100 mM NaCl, 5 μg of PP2Ac antibody (Upstate), and 25 μl of Protein A-agarose were added to 400 μl of 50 mM Tris (pH 7.0)/100 mM CaCl2, and IPs were carried out at 4° C. for 2 hr. IPs were washed and used in the phosphatase reaction according to the manufacturer's protocol. Specificity of the PP2A assay was assessed by titration with okadaic acid and by ascertaining the absence of PP1a in the PP2A immunoprecipitates (Figure S2A). As internal control, the amount of immunoprecipitated PP2A was also monitored by anti-PP2Ac Western blots (Figure S2B).

CCCCCCCCc1ccc(CCC(N)(CO)CO)cc1 [FTY720]
Akt phosphorylation/activity (Akt): Dephosphorylation and inactivation | growth, apoptosis and clonogenic potential [1]: significant growth inhibition, apoptosis and impaired clonogenic potential | inhibitory effect on cells not expressing the oncogene [2]: no effect was detected | mice alive ([3]; FTY720 250 μg/mouse/day i.p., after 20 weeks of treatment): more than 50% | signs of toxicity ([3]; control group that received only the drug): no signs of toxicity | BCR/ABL activity (BCR/ABL): inactivated | expression of PP2A protein levels (PP2A): without increased expression | PP2A activity (PP2A; prior to induction of apoptosis): induces
